Publication doi:10.1101/2025.01.28.635346v1 (bioRxiv, 2025)
Like-named read-outs stand apart in the source and are kept apart here. Bridge positions count the residues as written; N and C are the ends. Side chains are listed from the residue outwards. Peptide text beside a SMILES is read from it. * marks the point of attachment. Butanoyl(4-(4-I-phenyl)) = O=C(CCCc1ccc(I)cc1)*; PEG2 = NCCOCCOCCC(=O)O

How the values were obtained:
[1] = molecular target: T1, EDNRA (Homo sapiens, UniProt P25101); assay: Safetyscan47 GPCR Calcium Flux, Agonist; format: cell-based; conditions: for Emax: read-out: Max Response
T1 sequence (P25101 21-427): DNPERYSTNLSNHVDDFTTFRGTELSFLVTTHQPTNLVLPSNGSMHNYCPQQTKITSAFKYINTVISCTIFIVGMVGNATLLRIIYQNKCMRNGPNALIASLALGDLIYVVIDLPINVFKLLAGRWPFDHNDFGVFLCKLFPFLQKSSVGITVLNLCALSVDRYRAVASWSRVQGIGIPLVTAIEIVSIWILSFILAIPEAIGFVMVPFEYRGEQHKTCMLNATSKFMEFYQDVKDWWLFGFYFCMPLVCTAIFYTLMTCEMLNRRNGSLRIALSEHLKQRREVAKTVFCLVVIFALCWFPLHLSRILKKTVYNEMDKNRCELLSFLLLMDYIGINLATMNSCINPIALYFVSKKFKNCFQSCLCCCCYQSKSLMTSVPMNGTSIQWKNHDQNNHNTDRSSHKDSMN

[2] = molecular target: integrin α8β1 (Homo sapiens, UniProt P05556+P53708); assay: ELISA competition assay, integrin α8β1; format: binding
[3] = molecular target: T2, ADRA2A (Homo sapiens, UniProt P08913); assay: Safetyscan47 GPCR cAMP, Agonist; format: cell-based; conditions: for Emax: read-out: Max Response
T2 sequence (P08913 1-465): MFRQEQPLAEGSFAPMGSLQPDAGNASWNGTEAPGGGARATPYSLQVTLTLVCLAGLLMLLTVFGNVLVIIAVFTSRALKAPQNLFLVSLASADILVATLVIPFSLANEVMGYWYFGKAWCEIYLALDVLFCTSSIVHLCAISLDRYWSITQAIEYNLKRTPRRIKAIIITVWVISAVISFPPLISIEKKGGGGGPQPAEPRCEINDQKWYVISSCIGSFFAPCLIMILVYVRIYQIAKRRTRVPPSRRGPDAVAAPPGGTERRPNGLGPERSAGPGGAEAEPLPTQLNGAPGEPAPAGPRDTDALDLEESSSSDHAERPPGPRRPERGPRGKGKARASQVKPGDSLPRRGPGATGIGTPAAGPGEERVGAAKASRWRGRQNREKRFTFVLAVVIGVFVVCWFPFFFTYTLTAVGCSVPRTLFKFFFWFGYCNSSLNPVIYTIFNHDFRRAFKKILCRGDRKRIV

[4] = molecular target: hERG (Homo sapiens, UniProt Q12809); assay: Safetyscan47 Ion Channel, Blocker; format: cell-based
[5] = Solubility and aggregation; format: physicochemical
[6] = Pharmacokinetics in female Sprague-Dawley rats; format: in vivo, rat
[7] = Tissue distribution in female Balb/c mice; format: in vivo, mouse; conditions: for Brain concentration / Colon concentration / Kidneys concentration / Liver concentration / Mammary concentration / Ovaries concentration / Plasma Concentration / Lungs concentration: Balb/c mice
[8] = female, Sprague-Dawley, rat, plasma, 30 mg/kg
[9] = female, Sprague-Dawley, rat, plasma, iv, 30 mg/kg
[10] = 3 hr, Mouse 1 (individual animal)
[11] = 3 hr, Mouse 2 (individual animal)
[12] = 3 hr, Mouse 3 (individual animal)
[13] = 8 hr, Mouse 1 (individual animal)
[14] = 8 hr, Mouse 2 (individual animal)
[15] = 8 hr, Mouse 3 (individual animal)
[16] = female, Balb/c, mouse, brain, ip, 30 mg/kg
[17] = female, Balb/c, mouse, breast tissue including mammary gland, ip, 30 mg/kg
[18] = female, Balb/c, mouse, colon, ip, 30 mg/kg
[19] = female, Balb/c, mouse, kidney, ip, 30 mg/kg
[20] = female, Balb/c, mouse, kidneys, ip, 30 mg/kg
[21] = female, Balb/c, mouse, liver, ip, 30 mg/kg
[22] = female, Balb/c, mouse, lungs, ip, 30 mg/kg
[23] = female, Balb/c, mouse, ovaries, ip, 30 mg/kg
[24] = female, Balb/c, mouse, plasma, ip, 30 mg/kg

Sequence of hERG (Q12809 whole entry): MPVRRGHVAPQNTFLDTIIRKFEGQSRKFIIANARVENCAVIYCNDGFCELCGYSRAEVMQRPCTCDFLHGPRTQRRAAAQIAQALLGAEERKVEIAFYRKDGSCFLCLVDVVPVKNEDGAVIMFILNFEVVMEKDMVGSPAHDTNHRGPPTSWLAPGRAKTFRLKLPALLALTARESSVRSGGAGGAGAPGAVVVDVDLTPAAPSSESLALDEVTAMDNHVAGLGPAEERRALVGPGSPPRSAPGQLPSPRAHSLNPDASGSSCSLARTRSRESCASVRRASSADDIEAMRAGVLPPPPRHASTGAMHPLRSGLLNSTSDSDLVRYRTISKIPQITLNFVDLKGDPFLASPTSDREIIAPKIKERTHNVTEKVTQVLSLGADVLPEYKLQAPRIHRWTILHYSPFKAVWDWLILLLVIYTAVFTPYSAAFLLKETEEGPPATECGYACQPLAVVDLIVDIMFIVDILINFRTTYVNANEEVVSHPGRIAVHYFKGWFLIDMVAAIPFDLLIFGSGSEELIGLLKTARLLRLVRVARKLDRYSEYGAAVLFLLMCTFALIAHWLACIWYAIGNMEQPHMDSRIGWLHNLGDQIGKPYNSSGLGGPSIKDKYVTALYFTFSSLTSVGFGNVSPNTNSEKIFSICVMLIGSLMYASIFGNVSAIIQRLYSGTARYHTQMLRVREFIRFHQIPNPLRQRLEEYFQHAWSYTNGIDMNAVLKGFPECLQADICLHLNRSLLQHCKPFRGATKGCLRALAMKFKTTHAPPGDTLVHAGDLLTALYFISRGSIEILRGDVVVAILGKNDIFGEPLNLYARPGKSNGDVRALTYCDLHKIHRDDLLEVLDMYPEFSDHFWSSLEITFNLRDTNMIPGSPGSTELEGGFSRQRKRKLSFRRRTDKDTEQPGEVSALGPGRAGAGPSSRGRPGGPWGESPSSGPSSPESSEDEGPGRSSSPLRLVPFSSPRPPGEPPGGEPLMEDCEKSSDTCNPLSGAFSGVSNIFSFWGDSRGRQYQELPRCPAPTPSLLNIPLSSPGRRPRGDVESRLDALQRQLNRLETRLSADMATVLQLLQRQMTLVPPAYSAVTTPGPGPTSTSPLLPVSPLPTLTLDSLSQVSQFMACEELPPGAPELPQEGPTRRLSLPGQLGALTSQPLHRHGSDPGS
Sequence of integrin α8β1 (P53708 39-1011 limits assumed): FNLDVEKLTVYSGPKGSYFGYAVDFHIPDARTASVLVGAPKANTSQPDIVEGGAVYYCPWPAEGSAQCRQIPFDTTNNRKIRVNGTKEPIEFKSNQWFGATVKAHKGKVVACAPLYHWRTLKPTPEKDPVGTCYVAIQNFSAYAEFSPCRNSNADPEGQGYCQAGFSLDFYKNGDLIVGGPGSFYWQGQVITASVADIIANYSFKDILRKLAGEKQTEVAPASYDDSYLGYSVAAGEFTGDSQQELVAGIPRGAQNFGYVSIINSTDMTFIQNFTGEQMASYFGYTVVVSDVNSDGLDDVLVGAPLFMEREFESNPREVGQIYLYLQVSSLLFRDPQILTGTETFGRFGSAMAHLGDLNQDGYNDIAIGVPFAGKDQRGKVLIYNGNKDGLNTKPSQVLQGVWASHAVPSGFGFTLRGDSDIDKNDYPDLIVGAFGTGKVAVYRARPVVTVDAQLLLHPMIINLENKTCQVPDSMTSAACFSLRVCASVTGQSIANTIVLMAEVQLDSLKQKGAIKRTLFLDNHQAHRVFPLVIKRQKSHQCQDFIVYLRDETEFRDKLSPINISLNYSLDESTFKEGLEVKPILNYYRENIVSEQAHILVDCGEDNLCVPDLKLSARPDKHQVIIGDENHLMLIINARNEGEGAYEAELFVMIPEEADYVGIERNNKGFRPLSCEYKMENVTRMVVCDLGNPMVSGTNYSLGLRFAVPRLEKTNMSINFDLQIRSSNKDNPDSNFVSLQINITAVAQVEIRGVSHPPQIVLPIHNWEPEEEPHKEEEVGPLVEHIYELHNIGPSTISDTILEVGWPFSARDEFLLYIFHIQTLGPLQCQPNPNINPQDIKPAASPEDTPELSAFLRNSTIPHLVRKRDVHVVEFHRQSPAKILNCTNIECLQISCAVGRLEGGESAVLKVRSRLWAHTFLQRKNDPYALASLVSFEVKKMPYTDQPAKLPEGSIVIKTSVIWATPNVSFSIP
Sequence of integrin α8β1 (P05556 21-728 limits assumed): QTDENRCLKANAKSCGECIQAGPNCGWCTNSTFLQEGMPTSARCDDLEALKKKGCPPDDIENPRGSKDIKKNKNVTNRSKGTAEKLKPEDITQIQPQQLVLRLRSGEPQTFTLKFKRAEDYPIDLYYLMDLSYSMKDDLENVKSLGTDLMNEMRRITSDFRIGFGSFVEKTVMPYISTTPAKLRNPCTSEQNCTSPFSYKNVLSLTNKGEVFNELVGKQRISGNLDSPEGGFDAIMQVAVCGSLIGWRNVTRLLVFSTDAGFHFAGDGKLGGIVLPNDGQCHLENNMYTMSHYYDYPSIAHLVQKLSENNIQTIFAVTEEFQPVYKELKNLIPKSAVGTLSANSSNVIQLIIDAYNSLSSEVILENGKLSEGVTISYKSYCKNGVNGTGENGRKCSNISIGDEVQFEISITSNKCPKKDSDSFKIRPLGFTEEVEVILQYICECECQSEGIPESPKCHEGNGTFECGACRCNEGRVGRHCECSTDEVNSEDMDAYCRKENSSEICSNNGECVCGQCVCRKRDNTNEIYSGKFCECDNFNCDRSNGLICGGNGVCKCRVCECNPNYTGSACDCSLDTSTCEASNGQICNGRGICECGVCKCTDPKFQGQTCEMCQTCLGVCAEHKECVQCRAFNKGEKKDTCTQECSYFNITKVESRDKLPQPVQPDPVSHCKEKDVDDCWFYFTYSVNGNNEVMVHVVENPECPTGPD

CC[C@H](C)[C@H](NC(=O)[C@H](CC(C)C)NC(=O)[C@H](CC(=O)O)NC(=O)CNC(=O)[C@H](CCCNC(=N)N)NC(=O)[C@@H](NC(=O)[C@H](Cc1ccccc1)NC(=O)[C@H](Cc1ccc(O)cc1)NC(=O)[C@@H]1CCC(=O)NCC(=O)NCC(=O)N[C@@H](CCCNC(=N)N)C(=O)NCC(=O)N[C@@H](Cc2c[nH]cn2)C(=O)N[C@@H](C(C)C)C(=O)N2CCC[C@H]2C(=O)N1)C(C)C)C(=O)N[C@@H](CO)C(=O)N[C@@H](Cc1ccccc1)C(=O)N[C@@H](Cc1ccc(O)cc1)C(=O)N[C@@H](CCCCN)C(=O)O [lassotide 36] (GGRGHVPEYFVRGDLISFYK-OH; lactam N-8)
EC50 [1]: > 45 µM | Emax [1]: 1.75% | IC50 [2]: 3.89 µM | EC50 [3]: > 45 µM | Emax [3]: 0.3% | IC50 [4]: > 45 µM | Emax ([4]; human): 5.06%

CC[C@H](C)[C@H](NC(=O)[C@H](CC(C)C)NC(=O)[C@H](CC(=O)O)NC(=O)CNC(=O)[C@H](CCCNC(=N)N)NC(=O)[C@@H](NC(=O)[C@H](Cc1ccccc1)NC(=O)[C@H](Cc1ccc(O)cc1)NC(=O)[C@@H]1CCC(=O)NCC(=O)NCC(=O)N[C@@H](CCCNC(=N)N)C(=O)NCC(=O)N[C@@H](Cc2c[nH]cn2)C(=O)N[C@@H](C(C)C)C(=O)N2CCC[C@H]2C(=O)N1)C(C)C)C(=O)N[C@@H](CO)C(=O)N[C@@H](Cc1ccccc1)C(=O)N[C@@H](Cc1ccc(O)cc1)C(=O)N[C@@H](CCCCNC(=O)CCOCCOCCNC(=O)CCCc1ccc(I)cc1)C(=O)O [lassotide 47] (GGRGHVPEYFVRGDLISFYK([PEG2-Butanoyl(4-(4-I-phenyl))])-OH; lactam N-8)
Solubility in DMSO ([5]; DMSO (text: also formulations containing 10-20% DMSO and PEG)): > 200 mg/mL | solubility ([5]; acetate buffer, pH 4.5, aqueous buffer): ≥ 30 mg/mL | EC50 [1]: > 45 µM | Emax [1]: 2.94% | IC50 [2]: > 10 µM | AUC(0-inf) [6, 8]: 2740 µg·h/mL | C0 [6, 8]: 441 µg/mL | Cmax [6, 8]: 369 µg/mL | AUC(0-t) [6, 9]: 2360 µg·h/mL | Tmax [6, 9]: 0.2 h | Vd [6, 9]: 0.1 L/kg | clearance [6, 9]: 0.2 mL/min/kg | half-life [6, 9]: 8.5 h | AUCINF ([6]; rat 30 mg/kg, animal 1M001): 2670 µg·h/mL | AUClast ([6]; rat 30 mg/kg, animal 1M001): 2310 µg·h/mL | C0 ([6]; rat 30 mg/kg, animal 1M001): 383 µg/mL | CL ([6]; rat 30 mg/kg, animal 1M001): 0.187 mL/min/kg | Cmax ([6]; rat 30 mg/kg, animal 1M001): 327 µg/mL | Vz ([6]; rat 30 mg/kg, animal 1M001): 0.133 L/kg | t1/2 ([6]; rat 30 mg/kg, animal 1M001): 8.2 h | AUCINF ([6]; rat 30 mg/kg, animal 1M002): 2370 µg·h/mL | AUClast ([6]; rat 30 mg/kg, animal 1M002): 2110 µg·h/mL | C0 ([6]; rat 30 mg/kg, animal 1M002): 370 µg/mL | CL ([6]; rat 30 mg/kg, animal 1M002): 0.211 mL/min/kg | Cmax ([6]; rat 30 mg/kg, animal 1M002): 336 µg/mL | Vz ([6]; rat 30 mg/kg, animal 1M002): 0.144 L/kg | t1/2 ([6]; rat 30 mg/kg, animal 1M002): 7.9 h | AUCINF ([6]; rat 30 mg/kg, animal 1M003): 3180 µg·h/mL | AUClast ([6]; rat 30 mg/kg, animal 1M003): 2650 µg·h/mL | C0 ([6]; rat 30 mg/kg, animal 1M003): 571 µg/mL | CL ([6]; rat 30 mg/kg, animal 1M003): 0.157 mL/min/kg | Cmax ([6]; rat 30 mg/kg, animal 1M003): 443 µg/mL | Vz ([6]; rat 30 mg/kg, animal 1M003): 0.127 L/kg | t1/2 ([6]; rat 30 mg/kg, animal 1M003): 9.3 h | EC50 [3]: > 45 µM | Emax [3]: 30.2% | Brain concentration [7, 10]: 985 ng/g | Colon concentration [7, 10]: 6100 ng/g | Kidneys concentration [7, 10]: 11600 ng/g | Liver concentration [7, 10]: 4430 ng/g | Mammary concentration [7, 10]: 21700 ng/g | Ovaries concentration [7, 10]: 27800 ng/g | Plasma Concentration [7, 10]: 192 µg/mL | Brain concentration [7, 11]: 968 ng/g | Colon concentration [7, 11]: 6010 ng/g | Kidneys concentration [7, 11]: 11500 ng/g | Liver concentration [7, 11]: 4000 ng/g | Lungs concentration [7, 11]: 32400 ng/g | Mammary concentration [7, 11]: 18900 ng/g | Ovaries concentration [7, 11]: 25700 ng/g | Plasma Concentration [7, 11]: 168 µg/mL | Brain concentration [7, 12]: 756 ng/g | Colon concentration [7, 12]: 4370 ng/g | Kidneys concentration [7, 12]: 9960 ng/g | Liver concentration [7, 12]: 3250 ng/g | Lungs concentration [7, 12]: 36100 ng/g | Mammary concentration [7, 12]: 14800 ng/g | Ovaries concentration [7, 12]: 20800 ng/g | Plasma Concentration [7, 12]: 160 µg/mL | Brain concentration [7, 13]: 974 ng/g | Colon concentration [7, 13]: 2940 ng/g | Kidneys concentration [7, 13]: 12200 ng/g | Liver concentration [7, 13]: 4440 ng/g | Lungs concentration [7, 13]: 41500 ng/g | Mammary concentration [7, 13]: 12200 ng/g | Ovaries concentration [7, 13]: 18700 ng/g | Plasma Concentration [7, 13]: 117 µg/mL | Brain concentration [7, 14]: 617 ng/g | Colon concentration [7, 14]: 2460 ng/g | Kidneys concentration [7, 14]: 8480 ng/g | Liver concentration [7, 14]: 2430 ng/g | Lungs concentration [7, 14]: 31300 ng/g | Mammary concentration [7, 14]: 8100 ng/g | Ovaries concentration [7, 14]: 14700 ng/g | Plasma Concentration [7, 14]: 106 µg/mL | Brain concentration [7, 15]: 406 ng/g | Colon concentration [7, 15]: 2190 ng/g | Kidneys concentration [7, 15]: 6640 ng/g | Liver concentration [7, 15]: 2230 ng/g | Lungs concentration [7, 15]: 16000 ng/g | Mammary concentration [7, 15]: 5390 ng/g | Ovaries concentration [7, 15]: 8870 ng/g | Plasma Concentration [7, 15]: 77 µg/mL | tissue level at time at 3 h [7, 16]: 903 ng/g | tissue level at time at 8 h [7, 16]: 666 ng/g | tissue level at time at 3 h [7, 17]: 18500 ng/g | tissue level at time at 8 h [7, 17]: 8560 ng/g | tissue level at time at 3 h [7, 18]: 5490 ng/g | tissue level at time at 8 h [7, 18]: 2530 ng/g | tissue level at time at 3 h [7, 19]: 11000 ng/g | tissue level at time at 8 h [7, 19]: 9110 ng/g | tissue level at time at 3 h [7, 20]: 11000 ng/g | tissue level at time at 8 h [7, 20]: 9110 ng/g | tissue level at time at 3 h [7, 21]: 3890 ng/g | tissue level at time at 8 h [7, 21]: 3030 ng/g | tissue level at time at 3 h [7, 22]: 57200 ng/g | tissue level at time at 8 h [7, 22]: 29600 ng/g | tissue level at time at 3 h [7, 23]: 24800 ng/g | tissue level at time at 8 h [7, 23]: 14100 ng/g | level at 3 h [7, 24]: 173 µg/mL | level at 8 h [7, 24]: 100 µg/mL | Emax ([4]; human): 1.41% | IC50 ([4]; human): > 45 µM
